Test results from the NIST ThermoML archive (doi:10.1021/acs.jced.8b00011).
Several values for one entry are separate records, joined by “and”; a condition that tells them apart may be missing. Identical values can stand only once. Numbers after ± are expanded uncertainties.

Details: Liquid; for mass density: Vibrating tube method; for electrical conductivity: electrochemical impedance spectroscopy

CCCCC[P+](CC)(CC)CC.O=S(=O)([N-]S(=O)(=O)C(F)(F)F)C(F)(F)F
Details	electrical conductivity	mass density
343.15 K, 45000 kPa	–	1298.89 ± 1.5 kg/m3
343.15 K, 50000 kPa	–	1302.23 ± 1.6 kg/m3
348.15 K, 101.33 kPa	0.885 S/m and 0.887 S/m	–
348.16 K, 101.33 kPa	0.877 ± 0.018 S/m	–
353.15 K, 100 kPa	–	1256.32 ± 1.3 kg/m3 [middle of 5 runs]
353.15 K, 101.33 kPa	0.999 S/m and 1 S/m	–
353.15 K, 1000 kPa	–	1256.5 ± 1.3 kg/m3
353.15 K, 5000 kPa	–	1260.01 ± 1.3 kg/m3
353.15 K, 10000 kPa	–	1264.27 ± 1.3 kg/m3
353.15 K, 15000 kPa	–	1268.38 ± 1.3 kg/m3
353.15 K, 20000 kPa	–	1272.39 ± 1.4 kg/m3
353.15 K, 25000 kPa	–	1276.24 ± 1.4 kg/m3
353.15 K, 30000 kPa	–	1280.04 ± 1.4 kg/m3
353.15 K, 35000 kPa	–	1283.68 ± 1.4 kg/m3
353.15 K, 40000 kPa	–	1287.28 ± 1.5 kg/m3
353.15 K, 45000 kPa	–	1290.77 ± 1.5 kg/m3
353.15 K, 50000 kPa	–	1294.22 ± 1.5 kg/m3
363.15 K, 100 kPa	–	1248.72 ± 1.7 kg/m3 [middle of 4 runs]

Details	electrical conductivity [S/m]	viscosity
348.14 K, 10700 kPa, Frequency=0 MHz	0.8 ± 0.016	–
348.14 K, 225100 kPa, Frequency=0 MHz	0.167 ± 0.0033	–
348.15 K, 100 kPa, Falling or rolling sphere viscometry	–	13.81 ± 0.32 mPa·s [middle of 7 runs]
348.15 K, 600 kPa, Falling or rolling sphere viscometry	–	13.91 ± 0.33 mPa·s
348.15 K, 1100 kPa, Frequency=0 MHz	0.871 ± 0.017	–
348.15 K, 1700 kPa, Frequency=0 MHz	0.865 ± 0.017	–
348.15 K, 3100 kPa, Frequency=0 MHz	0.855 ± 0.017	–
348.15 K, 5100 kPa, Frequency=0 MHz	0.84 ± 0.017	–
348.15 K, 10500 kPa, Falling or rolling sphere viscometry	–	15.46 ± 0.37 mPa·s
348.15 K, 15700 kPa, Frequency=0 MHz	0.766 ± 0.015	–
348.15 K, 20600 kPa, Falling or rolling sphere viscometry	–	17.36 ± 0.41 mPa·s
348.15 K, 20800 kPa, Frequency=0 MHz	0.734 ± 0.015	–
348.15 K, 25700 kPa, Frequency=0 MHz	0.704 ± 0.014	–
348.15 K, 30600 kPa, Falling or rolling sphere viscometry	–	18.78 ± 0.45 mPa·s
348.15 K, 30800 kPa, Frequency=0 MHz	0.675 ± 0.013	–
348.15 K, 40200 kPa, Frequency=0 MHz	0.625 ± 0.013	–
348.15 K, 40700 kPa, Falling or rolling sphere viscometry	–	20.72 ± 0.49 mPa·s
348.15 K, 50700 kPa, Falling or rolling sphere viscometry	–	22.73 ± 1.1 mPa·s
348.15 K, 51400 kPa, Falling or rolling sphere viscometry	–	22.92 ± 1.1 mPa·s
348.15 K, 60700 kPa, Falling or rolling sphere viscometry	–	25.33 ± 0.6 mPa·s
348.15 K, 70400 kPa, Falling or rolling sphere viscometry	–	27.64 ± 0.65 mPa·s
348.15 K, 76000 kPa, Frequency=0 MHz	0.473 ± 0.0095	–
348.15 K, 80600 kPa, Falling or rolling sphere viscometry	–	29.75 ± 0.7 mPa·s
348.15 K, 89800 kPa, Falling or rolling sphere viscometry	–	32.25 ± 0.76 mPa·s
348.15 K, 99100 kPa, Falling or rolling sphere viscometry	–	34.86 ± 1.5 mPa·s
348.15 K, 100500 kPa, Falling or rolling sphere viscometry	–	35.04 ± 1.5 mPa·s
348.15 K, 125700 kPa, Falling or rolling sphere viscometry	–	42.64 ± 2.2 mPa·s
348.15 K, 126600 kPa, Falling or rolling sphere viscometry	–	43.88 ± 2.2 mPa·s
348.15 K, 126600 kPa, Frequency=0 MHz	0.326 ± 0.0065	–
348.15 K, 150600 kPa, Falling or rolling sphere viscometry	–	52.08 ± 1.2 mPa·s
348.15 K, 150800 kPa, Falling or rolling sphere viscometry	–	52.23 ± 1.2 mPa·s
348.15 K, 152400 kPa, Frequency=0 MHz	0.272 ± 0.0054	–
348.15 K, 175600 kPa, Falling or rolling sphere viscometry	–	63.12 ± 1.5 mPa·s
348.15 K, 199600 kPa, Falling or rolling sphere viscometry	–	75.5 ± 1.9 mPa·s
348.15 K, 200900 kPa, Frequency=0 MHz	0.196 ± 0.0039	–
348.15 K, 237000 kPa, Falling or rolling sphere viscometry	–	99.1 ± 3.1 mPa·s
348.15 K, 242900 kPa, Falling or rolling sphere viscometry	–	104.9 ± 3.4 mPa·s
348.15 K, 250900 kPa, Frequency=0 MHz	0.141 ± 0.0028	–
348.16 K, 100 kPa, Frequency=0 MHz	0.877 ± 0.018	–
348.16 K, 50000 kPa, Frequency=0 MHz	0.577 ± 0.012	–
348.16 K, 103000 kPa, Frequency=0 MHz	0.384 ± 0.0077	–
348.16 K, 176100 kPa, Frequency=0 MHz	0.231 ± 0.0046	–
353.15 K, 100 kPa, Concentric cylinders viscometry	–	12.27 ± 0.28 mPa·s
353.15 K, 100 kPa, Falling or rolling sphere viscometry	–	12 ± 0.29 mPa·s and 11.96 ± 0.29 mPa·s
363.15 K, 100 kPa, Concentric cylinders viscometry	–	9.672 ± 0.22 mPa·s
363.15 K, 100 kPa, Falling or rolling sphere viscometry	–	9.358 ± 0.22 mPa·s and 9.337 ± 0.22 mPa·s and 9.414 ± 0.22 mPa·s
363.15 K, 9700 kPa, Falling or rolling sphere viscometry	–	10.37 ± 0.25 mPa·s
363.15 K, 20100 kPa, Falling or rolling sphere viscometry	–	11.57 ± 0.28 mPa·s
363.15 K, 20500 kPa, Falling or rolling sphere viscometry	–	11.52 ± 0.27 mPa·s
363.15 K, 30200 kPa, Falling or rolling sphere viscometry	–	12.72 ± 0.3 mPa·s
363.15 K, 39200 kPa, Falling or rolling sphere viscometry	–	13.83 ± 0.33 mPa·s
363.15 K, 49400 kPa, Falling or rolling sphere viscometry	–	15.21 ± 0.36 mPa·s
363.15 K, 59100 kPa, Falling or rolling sphere viscometry	–	16.63 ± 0.39 mPa·s
363.15 K, 80200 kPa, Falling or rolling sphere viscometry	–	19.84 ± 0.47 mPa·s
363.15 K, 102200 kPa, Falling or rolling sphere viscometry	–	23.51 ± 0.56 mPa·s
363.15 K, 102500 kPa, Falling or rolling sphere viscometry	–	23.47 ± 0.56 mPa·s
363.15 K, 124000 kPa, Falling or rolling sphere viscometry	–	27.54 ± 0.65 mPa·s
363.15 K, 125400 kPa, Falling or rolling sphere viscometry	–	27.86 ± 0.66 mPa·s
363.15 K, 147300 kPa, Falling or rolling sphere viscometry	–	32.93 ± 0.78 mPa·s
363.15 K, 149300 kPa, Falling or rolling sphere viscometry	–	33.43 ± 0.79 mPa·s
363.15 K, 172900 kPa, Falling or rolling sphere viscometry	–	39.05 ± 0.92 mPa·s
363.15 K, 200700 kPa, Falling or rolling sphere viscometry	–	47.56 ± 1.1 mPa·s
363.15 K, 212300 kPa, Falling or rolling sphere viscometry	–	51.41 ± 1.2 mPa·s
